Where a SMILES comes first, the peptide text is derived from it. [ ]: non-standard residue; d: D form. The star is where a group is joined. Nle = CCCC[C@H](N)C(=O)O; Cbz = O=C(OCc1ccccc1)*
What was measured:
[1] = system: IκBα; assay: TNFα-induced IκBα degradation in cells; format: cell-based
[2] = system: Nedd4; assay: In vitro autoubiquitination of HECT E3 Nedd4; format: biochemical
Protocol: It was then evaluated whether 4-[4-(5-nitro-furan-2-ylmethylene)-3,5-dioxo-pyrazolidin-1-yl]-benzoic acid methyl acid blocks autoubiquitination of both RING finger E3s (Mdm2) and HECT E3s (Nedd4) in vitro.
5 pmole per experimental point of bacterially expressed GST-Mdm2 (or GST-Nedd) is coupled to glutathione Sepharose (GS) for 30 minutes at room temperature with tumbling, followed by 3× wash with 50 mM Tris pH 7.5. Following this, 20 μl of 1× buffer is added (40 μl 10× reaction buffer*, 40 μl 10× PCK**, 320 μl dH2O). The test compound in DMSO is then added to the desired concentration with an equal volume of DMSO used as a control. Samples are incubated with shaking for 1 hr at 23° C. To carry out the reaction, a pre-made cocktail of Rabbit E1 (Calbiochem #6620700)/UbCH5B/^32P Ub cocktail (1 μl/0.5 μl/1 μl) is added followed by 15 minutes shaking at 30° C. The reaction is terminated by addition of 8 μl 4× reducing SDS-PAGE loading buffer. After dissociating proteins from the beads at 100° C. for 2 minutes, samples are resolved on 6% PAGE followed by exposure of the dried gel to phosphor screen. Note: ^32P Ub is derived from GST-Ub that has been engineered to include a PKA phosphorylation site. This fusion protein is purified on glutathione Sepharose, phosphorylated, following this, the ^32P Ub ubiquitin is cleaved and purified away from the thrombin.

[3] = system: cyclin E; assay: Degradation of in vitro translated cyclin E in S-100 cytosolic extract; format: biochemical
Source text: Cytosolic extracts from cells (S-100) contain all the components for ubiquitination and proteasomal degradation. To further evaluate 4-[4-(5-nitro-furan-2-ylmethylene)-3,5-dioxo-pyrazolidin-1-yl]-benzoic acid methyl acid, we made use of in vitro translated cyclin E, which is degraded in S-100 in a time-dependent manner (FIG. 3, upper panel, lanes 1-4).

## CCCC[C@@H](C=O)NC(=O)[C@H](CC(C)C)NC(=O)[C@H](CC(C)C)NC(C)=O [ALLN, reference compound] (Ac-Leu-Leu-[Nle]-aldehyde)
[1]
  TNFα-induced IκBα degradation: prevents TNFα-induced IκBα degradation

## O=c1nc2n(-c3cccc(Cl)c3)c3ccc([N+](=O)[O-])cc3cc-2c(=O)[nH]1 [98CO7, 10-(-3-chloro-phenyl)-7-nitro-10H-pyrimido[4,5-b]quinoline-2,4-dione, reference compound]
[2]
  autoubiquitination of Nedd4: only has very moderate effects

## CC(C)C[C@@H](C=O)NC(=O)[C@H](CC(C)C)NC(=O)[C@H](CC(C)C)NC(=O)OCc1ccccc1 [MG132, reference compound] (Cbz-Leu-Leu-Leu-aldehyde)
[3]; no exogenous E1
  cyclin E degradation in S-100: block cyclin E degradation
[3]; purified exogenous E1 added to the reaction mixture
  cyclin E degradation in S-100 after addition of purified exogenous E1: unable to overcome the block in cyclin E degradation
